According to publication PMC5597302 (Angewandte Chemie (International ed. in English), 2016):

Columns and labels:
uPAR = uPAR (Homo sapiens, UniProt Q03405); settings: read-out: affinity for uPAR; reported value; ref 8a; cited from earlier work
[1] = tested on: B16 melanoma cells expressing human uPAR; assay: B16-uPAR mouse allograft model; settings: Dox 1 mpk

Chain of uPAR (Q03405 23-335): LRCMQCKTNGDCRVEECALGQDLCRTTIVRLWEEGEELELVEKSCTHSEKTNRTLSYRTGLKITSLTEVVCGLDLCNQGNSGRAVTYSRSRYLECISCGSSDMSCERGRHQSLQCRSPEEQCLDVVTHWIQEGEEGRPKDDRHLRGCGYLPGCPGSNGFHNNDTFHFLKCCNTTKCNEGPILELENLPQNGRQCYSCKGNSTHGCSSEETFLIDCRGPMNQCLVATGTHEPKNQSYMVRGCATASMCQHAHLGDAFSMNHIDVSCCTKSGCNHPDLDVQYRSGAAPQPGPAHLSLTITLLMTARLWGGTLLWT

Structure (SMILES)	Kd (uPAR) [nM]	level of TGI relative to ARM-U2 ([1]; daily IP, combination ARM-U2 20 mpk and Dox 1 mpk)	body weight loss ([1]; throughout the experiments, ARM-U2 20 or 100 mpk)
O=C(O)c1cccc(Nc2cc(N3CCCCCC3)c3noc4c3c2C(=O)c2ccccc2-4)c1 [IPR-803]	200		
COc1cccc2c1C(=O)c1c(O)c3c(c(O)c1C2=O)C[C@@](O)(C(=O)CO)C[C@@H]3O[C@H]1C[C@H](N)[C@H](O)[C@H](C)O1 [Dox, doxorubicin]		comparable	significant levels of weight loss
